Key:
[1] = test system: STING inhibition in human whole blood (IFNα2α production); experiment: Human whole blood assay (HWBA): cGAMP-stimulated IFNα2α production; type: cell-based; settings: Homo sapiens
Experimental: For the detection of STING inhibition in physiological environment human whole blood was stimulated by the cyclic dinucleotide cGAMP. Pathway activity was monitored by measuring the IFNα2α production.
Assay method: Compounds were delivered as 10 mM DMSO solution and serial diluted and transferred to the 96-well Cell culture Plate (Corning #3595), prefilled with 20 μl OptiMEM (Gibco #11058-021) in each well, using an Echo acoustic dispenser. Typically, 8 concentrations were used with the highest concentration at 10 μM in the final assay volume followed by ~1:5 dilution steps. DMSO concentration was set to 0.1% in the final assay volume. The 96 well assay plate contained 9 test compounds, a reference compound and DMSO in control wells.
Collection of human whole blood from 3 or more healthy donors (male or female, no medication for 7 days, exception contraceptive and thyroxine) as Na-citrate blood (e.g. 3.8% in Monovettes from Sarstedt) is conducted in parallel. Whole blood was kept at room temperature for a maximum of 3 hours after collection until use in the assay.
160 μl of the whole blood samples were transferred to each well of the 96-well assay plates filled with compound/OptiMEM. All assay plates are prepared as duplicates with blood from different donors. Blood plates were kept at room temperature for 60 minutes and continuous shaking with 450 rpm, covered with the lid, but not sealed.
A 10× cGAMP assay solution was diluted from a 2 mM stock solution in 1×HBSS immediately before use at room temperature. 20 μl of the 10× cGAMP/HBSS were added to all compound and all high control wells, whereas HBSS only was added to all low control wells.
After covering assay plates with aera seals and the lid, blood plates were kept at room temperature for 30 minutes and continuous shaking with 450 rpm, followed by an overnight incubation of 22 h at 37° C. in the incubator, without shaking.
For the detection of IFNα-2α in human plasma, the biotinylated capture antibody (Antibody set IFNA2, Meso Scale Diagnostics #B21VH-3, including coating and capture antibody) was diluted 1:17.5 in Diluent 100 (Meso Scale Diagnostics #R50AA-4, according to the manufacturer. U-Plex MSD GOLD 96-well Small Spot Streptavidin SECTOR Plates (Meso Scale Diagnostics #L45SA-5) were coated with 25 μl diluted capture antibody. Coated plates were incubated for 60 min at room temperature under continuous shaking at 700 rpm. MSD IFNα-2α plates were washed three times with 150 μl wash buffer (1×HBSS, 0.05% Tween).
After blocking the plates with 100 μl block solution/well (1×HBSS with 0.2% Tween, 2% BSA) for 60 min at room temperature and continuous shaking at 700 rpm, plates were emptied as dry as possible by dumping just before continuing with the human plasma. Whole Blood assay plates were centrifuged at 1600 rpm for 10 minutes. 25 μl of supernatant was transferred with a pipetting robotics from each whole blood plate to the corresponding IFNα-2α plate. Plates were sealed with microplate seals and kept at room temperature again under continuous shaking at 700 rpm for two hours. Next MSD IFNα-2α plates were washed three times with 150 μl wash buffer (1×HBSS, 0.05% Tween), before adding 25 μl MSD SULFO-TAG IFNα-2α Antibody solution (1:100 diluted in Diluent 3 (Meso Scale Diagnostics #R50AP-2) to each well of the plates. Afterwards plates were sealed with microplate seals and kept at room temperature again under continuous shaking at 700 rpm for two hours. Finally MSD IFNα-2α plates were washed three times with 150 μl wash buffer (1×HBSS, 0.05% Tween). 150 μl 2×Read buffer was added to each well and plates were immediately measured with the MSD Sector S600 Reader using the vendor barcode.
Data evaluation and calculation: For data evaluation and calculation, % control calculation of each well was based on the mean of high (cGAMP stimulated control) and mean of low (unstimulated control) controls by using the following formula: […]

[2] = target: T1, cGAMP binding domain of wild-type (GRR) human STING, residues 155-341 (Homo sapiens, UniProt Q86WV6, H232R); experiment: Increase of stability of STING protein against thermal denaturation, Differential Scanning Fluorimetry (DSF)
T1 construct: His-TEV-hSTING (WT); TEV protease cleavage site (N); made in house; host or cells: E. coli BL21 DE3
T1 sequence (Q86WV6 with tags, fused parts or gaps H232R): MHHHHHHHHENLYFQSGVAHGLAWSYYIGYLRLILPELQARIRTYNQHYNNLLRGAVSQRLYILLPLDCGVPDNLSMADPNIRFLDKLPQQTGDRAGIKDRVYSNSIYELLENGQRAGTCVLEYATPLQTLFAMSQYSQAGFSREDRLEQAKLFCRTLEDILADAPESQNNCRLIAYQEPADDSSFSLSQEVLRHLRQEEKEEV
Experimental: Dye fluorescence is quenched in aqueous environment and increases upon association of the dye with the hydrophobic parts of the unfolding protein. […] The inflection point of the curve represents the “melting” temperature of the protein (Tm) which is calculated numerically using the Boltzmann equation.
Method: The thermal stability of the STING protein was measured using a specific expression construct of the cGAMP binding domain of wild-type (GRR) human STING comprising residues 155-341 and a N-terminal 8×His-tag (SEQ ID NO: 3) in assay buffer containing 20 mM Tris, 150 mM NaCl at pH7.5.
The assay uses Hard-Shell® PCR Plates 384-Well CLR/WHT (Catalog #HSP3805, BIO-RAD), Microseal® ‘B’ Adhesive Seals for PCR Plates (Catalog #MSB-1001, BIO-RAD) and was run on a CFX384 Real-Time System (Bio-Rad).
A DMSO stock solution of SYPRO orange (SIGMA S5692-500UL) was prepared.
Compound stock solutions (10 mM in DMSO) were diluted 1:2 in DMSO to an intermediate compound concentration of 5 mM and then further diluted 1:40 in assay buffer resulting in a compound concentration of 125 μM and 2.5% DMSO.
Fluorescent dye stock solution (5000×SYPRO Orange) was then mixed with target protein and buffer to a concentration of 15 uM Protein and 25×SYPRO Orange. 2 ul of this protein-dye-mixture was added to 8 ul compound solution. Final volume was 10 uL. 3-6 well positions were used as negative control (protein with 2% DMSO). The plates were prepared for duplicate measurement and centrifuged for 2 min at 1000 g. In the measurement, 160 cycles of 0.5° C. were used (temperature ramp 15 s/cycle, 15° C. to 95° C.).
Final Assay concentrations for compound characterization were as follows: 100 uM compound, 3 uM target protein, 5×SYPRO Orange, 2% DMSO in 10 ul. All dispensing steps were performed using a HamiltonStar pipetting robot (Hamilton).
Dissociation curves were processed in Bio-Rad CFX Manager. Peak type was set to “negative”. Compound codes for screen were assigned in the plate layout.
Two replicates of TM measurements were averaged, and the standard deviation was calculated. In cases of SD>1.5° C. the measurement was repeated.
The melting point (Tm) obtained for STING protein alone was subtracted from T obtained for protein incubated with ligand to generate ΔTm values.
Protein production and purification: The protein used for the biophysical experiments was a recombinant human STING protein comprising its cytosolic ectodomain. A codon optimized DNA sequence (for expression in Escherichia coli) encoding amino acid residues 155 to 341 (Swiss Prot Q86WV6) of human STING (WT) was synthesized by GeneArt (Regensburg, Germany) and inserted into a pET17b E. coli expression vector. The protein construct encodes an N-terminal 8×His-tag (SEQ ID NO: 3) followed by tobacco etch virus protease (TEV) cleavage site and the above STING gene sequence. The resulting protein sequence for the used STING variant is listed below:
For expression of recombinant human STING above construct was transformed into E. coli BL21 DE3 strain and grown in shake flasks in LB-medium at 37° C. Expression was induced by addition of isopropyl β-D-1-thiogalactopyranoside to a final concentration of 1 mM and cultures shaken overnight. Cell pellets were centrifuged and stored at −70° C. until further use. Protein was purified by cell thawing in lysis buffer (20 mM TRIS-HCl, pH 8, 300 mM NaCl, 2 mM mercaptoethanol, 20 mM imidazole, Complete Protease Inhibitor (Roche) and DNase (Roche)), followed by metal affinity purification using Ni-NTA resins and elution buffer consisting of 20 mM TRIS-HCl, pH 8, 300 mM NaCl, 2 mM mercaptoethanol, 300 mM imidazole and size exclusion chromatography in running buffer (20 mM TRIS-HCl, pH 8, 100 mM NaCl, 2 mM DTT). The peak fraction was collected and concentrated to 2.5 mg/mL.

STING = settings: in vitro and in BLM-induced SSc mice; cited from earlier work

| SMILES | IC50 [1] [nM] | DSF [2] [K] | fibrosis and vasculopathy (STING) |
| --- | --- | --- | --- |
| Cc1nc2nn(CC3COCCO3)cc2cc1-n1nc(-c2cccc3nn(C[C@H](O)c4ccccc4)cc23)c(C(C)C)c1C (stereo partly drawn) [Example 31, (1R)-2-[4-(1-{2-[(1,4-dioxan-2-yl)methyl]-6-methyl-2H-pyrazolo[3,4-b]pyridin-5-yl}-5-methyl-4-(propan-2-yl)-1H-pyrazol-3-yl)-2H-indazol-2-yl]-1-phenylethan-1-ol] | 110 | 27 |  |
| Cc1nc2nn(CCCN(C)C)cc2cc1-n1nc(-c2cccc3nn(C[C@H](O)c4ccccc4)cc23)c(C(C)C)c1C [Example 43, (1R)-2-[4-(1-{2-[3-(dimethylamino)propyl]-6-methyl-2H-pyrazolo[3,4-b]pyridin-5-yl}-5-methyl-4-(propan-2-yl)-1H-pyrazol-3-yl)-2H-indazol-2-yl]-1-phenylethan-1-ol] | 140 |  |  |
| Cn1cc2cc(-c3nc(-c4cccc5nn(C[C@H](O)c6ccc(OCc7ccccc7)cc6)cc45)c(C4CC4)n3C)c(C3CC3)nc2n1 [Example 4, (1R)-1-[4-(benzyloxy)phenyl]-2-[4-(5-cyclopropyl-2-{6-cyclopropyl-2-methyl-2H-pyrazolo[3,4-b]pyridin-5-yl}-1-methyl-1H-imidazol-4-yl)-2H-indazol-2-yl]ethan-1-ol] | 800 | 27 |  |
| COCCc1nc2nn(C)cc2cc1-n1nc(-c2cccc3nn(C[C@H](O)c4ccccc4)cc23)c(C(C)C)c1C [Example 38, (1R)-2-(4-{1-[6-(2-methoxyethyl)-2-methyl-2H-pyrazolo[3,4-b]pyridin-5-yl]-5-methyl-4-(propan-2-yl)-1H-pyrazol-3-yl}-2H-indazol-2-yl)-1-phenylethan-1-ol] | 130 | 26 |  |
| C=Cn1cc2cc(-c3nc(-c4cccc5nn(C[C@H](O)c6ccccc6)cc45)c(C4CC4)n3C)c(C3CC3)nc2n1 [Example 61, (1R)-2-[4-(5-cyclopropyl-2-{6-cyclopropyl-2-ethenyl-2H-pyrazolo[3,4-b]pyridin-5-yl}-1-methyl-1H-imidazol-4-yl)-2H-indazol-2-yl]-1-phenylethan-1-ol] | 270 | 30 |  |
| Cc1c(C(C)C)c(-c2cccc3nn(C[C@H](O)c4ccccc4)cc23)nn1-c1cc2cn(C)nc2nc1OCCO [Example 71, 2-{[5-(3-{2-[(2R)-2-hydroxy-2-phenylethyl]-2H-indazol-4-yl}-5-methyl-4-(propan-2-yl)-1H-pyrazol-1-yl)-2-methyl-2H-pyrazolo[3,4-b]pyridin-6-yl]oxy}ethan-1-ol] | 370 | 26 |  |
| CCc1ccc(NC(=O)Nc2c[nH]c3ccccc23)cc1 [Example H151] |  |  | ameliorated fibrosis and vasculopathy |
| Cn1c(-c2cc3cn(CCCN4CCOCC4)nc3nc2C2CC2)nc(-c2cccc3nn(C[C@H](O)c4ccccc4)cc23)c1C1CC1 [Example 11, (1R)-2-[4-(5-cyclopropyl-2-{6-cyclopropyl-2-[3-(morpholin-4-yl)propyl]-2H-pyrazolo[3,4-b]pyridin-5-yl}-1-methyl-1H-imidazol-4-yl)-2H-indazol-2-yl]-1-phenylethan-1-ol] | 70 | 30 |  |

More lines, main results first:

| IC50 [1] [nM] | DSF [2] [K] | SMILES | fibrosis and vasculopathy (STING) |
| --- | --- | --- | --- |
| 550 | 27 | Cc1nc2nn(CP(C)(C)=O)cc2cc1-n1nc(-c2cccc3nn(C[C@H](O)c4ccccc4)cc23)c(C(C)C)c1C [Example 77, (1R)-2-[4-(1-{2-[(dimethylphosphoryl)methyl]-6-methyl-2H-pyrazolo[3,4-b]pyridin-5-yl}-5-methyl-4-(propan-2-yl)-1H-pyrazol-3-yl)-2H-indazol-2-yl]-1-phenylethan-1-ol] |  |
| 240 | 27 | COc1nc2nn(C)cc2cc1-n1nc(-c2cccc3nn(C[C@H](O)c4ccccc4)cc23)c(C(C)C)c1C [Example 59, (1R)-2-[4-(1-{6-methoxy-2-methyl-2H-pyrazolo[3,4-b]pyridin-5-yl}-5-methyl-4-(propan-2-yl)-1H-pyrazol-3-yl)-2H-indazol-2-yl]-1-phenylethan-1-ol] |  |
| 61 |  | CCOc1nc2nn(C)cc2cc1-n1nc(-c2cccc3nn(C[C@H](O)c4ccccc4)cc23)c(C(C)C)c1C [Example 5, (1R)-2-[4-(1-{6-ethoxy-2-methyl-2H-pyrazolo[3,4-b]pyridin-5-yl}-5-methyl-4-(propan-2-yl)-1H-pyrazol-3-yl)-2H-indazol-2-yl]-1-phenylethan-1-ol] |  |
| 35 | 29 | Cc1nc2nn(CCC#N)cc2cc1-n1nc(-c2cccc3nn(C[C@H](O)c4ccccc4)cc23)c(C(C)C)c1C [Example 99] |  |
